Data on four compounds can be found in patent publication US8840886B2, “Method of treating cancer with DLL4 antagonist and chemotherapeutic agent” (Regeneron Pharmaceuticals, Inc., priority 2009, dated 2014).

Assay type in all cases: in vivo, mouse
In assay [1] the test system is human A549 tumor cells (non-small cell lung cancer). Briefly: A549 NSCLC xenograft tumor growth, REGN421 with cisplatin (Example 2). The procedure: The effect of REGN421 in combination with cisplatin on tumor growth was evaluated on tumors implanted in humanized Dll4 SCID mice, as described above. Each mouse was implanted subcutaneously (sc) with 5×10^6 human A549 tumor cells (non-small cell lung cancer or “NSCLC”). After the tumors were established in the mice (tumor size of 100-150 mm^3, approximately 29 days after implantation), tumors were measured, randomized and treated with hFc, REGN421, cisplatin or combination of REGN421 and cisplatin. A total of 36 mice were divided into 6 groups (n=6 per cohort). The first group was treated sc with hFc at 2 mg/kg; the second group was treated sc with REGN421 at 2 mg/kg; the third and fourth groups were treated ip with cisplatin at 2.5 and 4.5 mg/kg, respectively; the fifth group was treated sc with REGN421 at 2 mg/kg and ip with cisplatin at 2.5 mg/kg; and the sixth group was treated sc with REGN421 at 2 mg/kg and ip with cisplatin at 4.5 mg/kg. REGN421 was administered every 3-4 days starting on day 29 and mice received three doses total. Cisplatin was administered every 24 hours starting on day 29 and mice received two doses total.
To assess the effects of REGN421 and cisplatin as single agents or in combination we measured tumor size (volume), beginning three days before the initial REGN421 treatment, on the day of each agent treatment (days 29, 30, 33, 36) and thereafter every 3-4 days until tumors reached ˜600 mm^3 in size. In vivo tumor size was calculated using the formula (length×width^2)/2.

Assay [2] relates to human VM-Cub1 tumor cells (bladder carcinoma cells). The experiment in a line: VM-Cub1 bladder carcinoma xenograft tumor growth, REGN421 with cisplatin (Example 1). Conditions: for TGI: 4 doses, at day 32; for Euthanized: control cohort euthanized day 32; for TGD: time to 600 mm^3 vs control. The procedure: The effect of anti-Dll4 antibody (REGN421) in combination with cisplatin (platinol, cis-diamminedichloroplatinum) on tumor growth was evaluated on tumors implanted in Severe Combined Immunodeficiency (SCID) mice expressing a humanized Dll4 protein (humanized Dll4 SCID mice). The humanized Dll4 SCID mouse was made by replacing the entire extracellular domain of the mouse Dll4 gene with the corresponding extracellular region of the human Dll4 gene (7 kb) in embryonic stem (ES) cells. Homozygous hDll4 mice were generated and bred into SCID background.
Each mouse was implanted subcutaneously (sc) with 1×10^6 human VM-Cub1 tumor cells (bladder carcinoma cells) plus MATRIGEL™ (BD Biosciences, #354234). After the tumors were established in the mice (tumor size of 150-200 mm^3, approximately 14 days after implantation), tumors were measured, randomized and treated with hFc, REGN421, cisplatin, or combination of REGN421 and cisplatin. A total of 45 mice were divided into nine groups (n=5 per cohort). The first group was treated subcutaneously (sc) with hFc at 2 mg/kg; the second and third groups were treated sc with REGN421 at 0.5 and 2 mg/kg, respectively; the fourth and fifth groups were treated intraperitoneally (ip) with cisplatin at 0.5 and 2 mg/kg, respectively; the sixth group was treated sc with REGN421 at 0.5 mg/kg and ip with cisplatin at 0.5 mg/kg; the seventh group was treated sc with REGN421 at 0.5 mg/kg and ip with cisplatin at 2 mg/kg; the eighth group was treated sc with REGN421 at 2 mg/kg and ip with cisplatin at 0.5 mg/kg; and the ninth group was treated sc with REGN421 at 2 mg/kg and ip with cisplatin at 2 mg/kg. REGN421 was administered every 3-4 days starting on day 14 and mice received three doses total. Cisplatin was administered every 24 hours starting on day 14; mice received four doses total.
To assess the effects of REGN421 and cisplatin as single agents or in combination treatments, the changes in tumor size were recorded. Tumor growth was measured three days before the initial REGN421 treatment, on the day of each REGN421 treatment (days 14, 17 and 21) and thereafter every 3-4 days until tumors reached ˜600 mm^3 in size. In vivo tumor size was calculated using the formula (length×width^2)/2 (FIG. 1 and Table 1).
Tumor Growth Inhibition, TGI, was determined by calculating the difference in tumor size for treated (T) versus vehicle control (C) tumor at the day the control cohort was euthanized (i.e., at day 32); TGI=[1−(Tfinal−Tinitial)/(Cfinal−Cinitial)]×100.
Tumor growth delay, TGD, was assessed as the difference in days between treated (T) versus control (C) tumors when each cohort reached a specified tumor size. The predetermined tumor size for this experiment was 600 mm^3.

For assay [3], the system named is human MDA-MB-231 breast tumor cells. Briefly: MDA-MB-231 breast tumor growth in SCID mice, REGN577 with docetaxel (Example 4). The conditions noted are these: for reduction of tumor growth: at Day 63. The procedure: The effect of anti-Dll4 antibody in combination with docetaxel (TAXOTERE®, sanofi-aventis) on tumor growth was evaluated on tumors implanted in Severe Combined Immunodeficiency (SCID) mice. Each mouse was implanted ‘pseudo-orthotopically’ (subcutaneously into mammary gland #3) with 5×10^6 human MDA-MB-231 breast tumor cells with MATRIGEL™ (BD Biosciences lot #84540). After the tumors were established in the mice (tumor size of ˜150-200 mm^3, approximately 45 days after implantation), mice were treated with hFc, docetaxel, Dll4 antibody, or a combination of docetaxel plus Dll4 antibody. A total of 25 tumor-bearing […] mice were randomized into five groups (N=5 mice per group). The first group was treated subcutaneously with hFc (at 25 mg/kg) and intravenously (iv) with vehicle; the second group was treated with Dll4 antibody REGN577 sc at 5 mg/kg; the third group was treated with docetaxel iv at 4.5 mg/kg; the fourth group was treated with docetaxel iv at 6 mg/kg; the fifth group was treated with docetaxel iv at 6 mg/kg plus REGN577 sc at 5 mg/kg. Docetaxel and/or Dll4 antibody were administered on the same day. Animals were treated 2 times per week and received a total of 3 doses. Starting from the day of initial treatment, body weight and tumors were measured twice a week until the mice are euthanized. Mice were euthanized when tumors reached ˜600 mm^3 in size. Tumor size was calculated using the formula (length×width^2)/2.

Assay [4] concerns rat C6 tumor cells (glioblastoma cells). The experiment in a line: C6 glioblastoma tumor growth in SCID mice, REGN577 with docetaxel (Example 3). How it is done: The effect of anti-Dll4 antibody in combination with docetaxel (TAXOTERE®) on tumor growth was evaluated on tumors implanted in Severe Combined Immunodeficiency (SCID) mice. Each mouse was implanted subcutaneously (sc) with 1×10^6 rat C6 tumor cells (glioblastoma cells). After the tumors were established (tumor size of ˜100-150 mm^3, approximately 13 days after implantation), the mice were treated with hFc, docetaxel, Dll4 antibody, or a combination of docetaxel plus Dll4 antibody. Since these mice expressed mouse Dll4, the Dll4 Ab used in this experiment was prepared in-house, based on the published sequence (WO 2007/143689), and designated as REGN 577. […] A total of 30 tumor-bearing male mice were randomized into six groups (N=5). […] Starting from the day of initial treatment, body weight and tumors were measured twice a week until the mice were euthanized when tumors reached ˜600 mm^3 in size. Tumor size was calculated using the formula, (length×width^2)/2.

In assay [5] the test system is human HCT116 tumor cells (CRC). The experiment in a line: HCT116 colorectal xenograft tumor growth, REGN421 with 5-FU (Example 5). The procedure: The effect of anti-Dll4 Ab (REGN421) in combination with 5-FU on tumor growth was evaluated on tumors implanted in humanized Dll4 SCID mice. Each mouse was implanted subcutaneously (sc) with 5×10^6 human HCT116 tumor cells (CRC). After the tumors were established in the mice (tumor size of ˜150 mm^3, 22 days after implantation), tumors were measured and randomized. The mice were then treated with hFc, REGN421, 5-FU or combination of REGN421 and 5-FU. A total of 30 mice were divided into 6 groups (n=5 per cohort). The first group was treated sc with hFc at 2 mg/kg; the second group was treated sc with REGN421 at 2 mg/kg; the third and fourth groups were treated ip with 5-FU at 15 and 25 mg/kg, respectively; the fifth group was treated sc with REGN421 at 2 mg/kg and ip with 5-FU at 15 mg/kg; and the sixth group was treated sc with REGN421 at 2 mg/kg and ip with 5-FU at 25 mg/kg. REGN421 was administered every 3-4 days starting on day 22 and mice received three doses total. 5-FU was administered every 3-4 days starting on day 22 and mice received three doses total.
To assess the effects of REGN421 and 5-FU as single agents or in combination, the changes in tumor size (volume) were measured, beginning three days before the initial REGN421 treatment, and then on the day of each agent treatment (days 22, 26, 29) and thereafter every 3-4 days until tumors reach ˜600 mm^3 in size. In vivo tumor size is calculated using the formula (length×width^2)/2 (FIG. 3 and Table 5).

The next assay concerns human HCT116 tumor cells. The experiment in a line: HCT116 xenograft tumor growth, REGN421 with irinotecan (Example 6). The procedure: Each mouse was implanted subcutaneously (sc) with 5×10^6 human HCT116 tumor cells. After the tumors were established in the mice (tumor size of ˜150 mm^3, 15 days after implantation), tumors were measured and randomized. The mice were then treated with hFc, REGN421, irinotecan or combination of REGN421 and irinotecan. A total of 30 mice were divided into 6 groups (n=5 per cohort). The first group was treated sc with hFc at 2 mg/kg; the second group was treated sc with REGN421 at 2 mg/kg; the third and fourth groups were treated ip with irinotecan at 7.5 and 25 mg/kg, respectively; the fifth group was treated sc with REGN421 at 2 mg/kg and ip with irinotecan at 7.5 mg/kg; and the sixth group was treated sc with REGN421 at 2 mg/kg and ip with irinotecan at 25 mg/kg. REGN421 was administered every 3-4 days starting on day 15 and mice received three doses total. Irinotecan was administered every 3-4 days starting on day 15 and mice received three doses total.
To assess the effects of REGN421 and irinotecan as single agents or in combination treatments, the changes in tumor size (volume) are measured, starting three days before the initial REGN421 treatment, and then on the day of each agent treatment (days 15, 19, 22) and thereafter every 3-4 days until tumors reach ˜600 mm^3 in size. In vivo tumor size is calculated using the formula (length×width^2)/2.

[6] abbreviates: docetaxel 4.5 mg/kg iv (13.5 mg/kg total dose).
Setting [7] is: docetaxel 6 mg/kg iv (18 mg/kg total dose).

On to `N.N.[Cl][Pt][Cl]` [Cisplatin, cis-diamminedichloroplatinum], for which the TGD in assay [1] (cisplatin 2.5 mg/kg ip (5 mg/kg total dose)) is reported as 4 days; in assay [1] (cisplatin 4.5 mg/kg ip (9 mg/kg total dose)), 11 days; in assay [2] (cisplatin 0.5 mg/kg/dose ip), 13 days; in assay [2] (cisplatin 2 mg/kg/dose ip), 9 days. The TGI (commonly how far tumour growth fell short of that in controls) in assay [2] (cisplatin 0.5 mg/kg/dose ip) is 60.7%; in assay [2] (cisplatin 0.5 mg/kg/dose ip, listed as cisplatin), 61%; in assay [2] (cisplatin 2 mg/kg/dose ip), 53.8%; in assay [2] (cisplatin 2 mg/kg/dose ip, listed as cisplatin) it was 54%. Besides, the values for the Euthanized in assay [2] (cisplatin 0.5 mg/kg/dose ip) and in assay [2] (cisplatin 2 mg/kg/dose ip) were 45 days and 41 days, respectively.

As to `CC(=O)O[C@@]12CO[C@@H]1C[C@H](O)[C@@]1(C)C(=O)[C@H](O)C3=C(C)[C@@H](OC(=O)[C@H](O)[C@@H](NC(=O)OC(C)(C)C)c4ccccc4)C[C@@](O)([C@@H](OC(=O)c4ccccc4)[C@H]21)C3(C)C` [Docetaxel, docetaxel], the TGD in assay [3] (setting [6]) was 4 days; in assay [3] (setting [7]), 4 days; in assay [4] (setting [6]) it was 6 days; in assay [4] (setting [7]) it was 7 days. Also, the “reduction of tumor growth” value in assay [3] (docetaxel 4.5 mg/kg iv) was found to be 37%; in assay [3] (docetaxel 6 mg/kg iv), 52%.

For the compound `O=c1[nH]cc(F)c(=O)[nH]1` [5-FU, 5-fluorouracil], the TGD in assay [5] (5-FU 15 mg/kg ip (45 mg/kg total dose)) came to 4 days; in assay [5] (5-FU 25 mg/kg ip (75 mg/kg total dose)), 2 days.

For `CCc1c2c(nc3ccc(OC(=O)N4CCC(N5CCCCC5)CC4)cc13)-c1cc3c(c(=O)n1C2)COC(=O)[C@]3(O)CC` [Irinotecan, irinotecan], the TGD stood at 8 days in the assay with human HCT116 tumor cells (irinotecan 7.5 mg/kg ip (22.5 mg/kg total dose)) and 16 days with human HCT116 tumor cells (irinotecan 25 mg/kg ip (75 mg/kg total dose)).
